From patent publication US20130130903A1, “Suppression of Foliar and Soilborne Pathogens” (priority 2003, published 2013) come the findings set out here.

The test system of this experiment is Gaeumannomyces graminis var. tritici (Ggt). The experiment can be described thus: Field yield of Ggt inoculated spring wheat after herbicide treatment. In kind it is in vivo. Conditions: for Yield: Ggt inoculated, glyphosate on glyphosate res. wheat, Buctril/Harmony on sensitive wheat. From the text:
This example describes the response of glyphosate resistant and glyphosate sensitive spring wheat to inoculation with soil pathogens as judged by wheat yield. Inoculation simulates the green-bridge effect of dying weeds and volunteer in a standing wheat crop. The soil pathogens assessed were: Rhizoctonia solani isolate AG-8 and Gaeumannomyces graminis var. tritici. These pathogenic strains are prevalent in the Pacific Northwest and were isolated from the region. They have been maintained by the Department of Plant Pathology and USDA researchers at Washington State University.
Near isogenic lines (glyphosate resistant and glyphosate sensitive) of Westbred 926 and Bobwhite were seeded using a no-till drill at three different sites (Lind, Davenport and Pullman, Wash.).
To introduce the root pathogens into the wheat seed for distribution into the field, oat seeds, autoclaved and sterilized, were inoculated for each soilborne pathogen using isolated pathogen cultures. Oat seeds that were non-inoculated, but sterilized and autoclaved, served as a control. Following two weeks of pathogen growth, the inoculated oat seeds were dried down for 2 days and screened for potential contamination. To establish a green-bridge, a mixture of 15% barley and 20% oat inoculum seeds (by weight) were planted using a small plot no-till drill. One week after planting the introduced green-bridge, the wheat isolines were planted in rows adjacent to the barley green-bridge rows in a randomized, split-plot design, replicated in five randomized blocks. Inoculum treatment served as the main plot, and response to herbicides as the subplot factor.
This example describes the effect of herbicide treatment on spring wheat, averaged over all disease treatments, planted as described in Example 1. The appropriate herbicide was applied to each trial once the plants reached the 4-5 leaf stage with a custom built hand-pulled sprayer outfitted with a boom with a length of 16 feet with spray shields on the side to minimize drift. In this manner, an entire plot was treated at once with the appropriate herbicide rate. Entries that were resistant to glyphosate were treated with ROUNDUP® brand herbicide (0.63 kg/ha), available from Monsanto, St. Louis, Mo. Herbicide sensitive and resistant entries were treated with a common broadleaf herbicide treatment (Buctril/Harmony) or a no-spray control. Introduced green-bridge barley and any other weeds were manually removed 7-10 days after spray treatment to simulate the time required for ROUNDUP to take effect and maintained weed-free conditions to provide an accurate comparison to commercial weed management strategies needed to assess potential herbicide/disease interactions. […]

Regarding `O=C(O)CNCP(=O)(O)O` [glyphosate, N-phosphonomethylglycine], the Yield runs as follows: (Davenport) 28.7 bu/acre; (Lind) 14.4 bu/acre; (Pullman) 57.0 bu/acre. In addition, the “yield versus untreated and Buctril/Harmony treated glyphosate sensitive wheat” value (glyphosate resistant, Ggt inoculated wheat, each location) is on record as “significantly superior (P<0.05)”.
